Experimental data as given in patent US10167262B2, “Herbicidal substituted 3-arylpyrazoles” (FMC CORPORATION, priority 2014, dated 2019).

Columns and labels:
Type in all cases: in vivo
[1] = system: sedge, umbrella (small-flower umbrella sedge, Cyperus difformis); experiment: Test B flooded paddy test, plant response rating 0-100; conditions: Flood, 250 g ai/ha; scale 0 to 100 (0 no effect, 100 complete control); 13 to 15 days
Method in brief: (§1)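 Test compounds are applied straight into paddy water held 3 cm above the soil surface, with that flood maintained for the whole test. After 13 to 15 days in the greenhouse, each species is scored visually relative to controls.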

[2] = system: ducksalad (Heteranthera limosa); experiment: as above; conditions: Flood, 250 g ai/ha; scale 0 to 100 (0 no effect, 100 complete control); 13 to 15 days
Method in brief: as §1

[3] = system: rice (Oryza sativa); experiment: as above; conditions: Flood, 250 g ai/ha; scale 0 to 100 (0 no effect, 100 complete control); 13 to 15 days
Method in brief: as §1

[4] = system: goosegrass (Eleusine indica); experiment: Test C postemergence greenhouse test, plant response rating 0-100; conditions: for Plant response rating, Goosegrass: scale 0 to 100
Method in brief: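 Visual rating vs. controls, 0 (no effect) to 100 (complete control), 13–15 d after postemergence treatment. Potted plants, 1- to 4-leaf stage (2–18 cm), greenhouse-held.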

[5] = system: oilseed rape (Brassica napus); experiment: Test C pre-/postemergence greenhouse test, plant response rating 0-100
Method in brief: (§2)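 Pre- and postemergence greenhouse test: seeds sown in loam/sand and treated preemergence, or plants at 2–18 cm (1- to 4-leaf stage) in peat-based medium sprayed postemergence, with compounds in non-phytotoxic solvent plus surfactant. Visual rating versus untreated controls after 13–15 days, 0 (no effect) to 100 (complete control).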

[6] = system: waterhemp (common waterhemp, Amaranthus rudis); experiment: as above
Method in brief: as §2

[7] = system: barnyardgrass (Echinochloa crus-galli); experiment: as above
Method in brief: as §2

[8] = system: barnyardgrass (Echinochloa crus-galli); experiment: Test B flooded paddy test, plant response rating 0-100; conditions: Flood, 250 g ai/ha; scale 0 to 100 (0 no effect, 100 complete control); 13 to 15 days
Method in brief: as §1

[9] = system: Italian ryegrass (Lolium multiflorum); experiment: Test E pre-/postemergence greenhouse test, plant response rating 0-100; conditions: Postemergence, scale 0 to 100
Method in brief: (§3)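 Seeds sown in silt loam were treated preemergence, and seedlings in peat-based potting medium were treated postemergence at the 1- to 4-leaf stage (2-18 cm tall). Test chemicals were formulated in a non-phytotoxic solvent mixture with surfactant. After 14-21 days in the greenhouse, injury was rated visually against untreated controls (0 = no effect, 100 = complete control).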

[10] = system: wild poinsettia (Euphorbia heterophylla); experiment: as above; conditions: Postemergence, scale 0 to 100
Method in brief: as §3

[11] = Postemergence, 250 g ai/ha, scale 0 to 100
[12] = Postemergence, 500 g ai/ha, scale 0 to 100

## Cn1cc(C(=NN2CCCC2)c2ccccc2)c(-c2cc(Cl)c(Cl)c(Cl)c2)n1 [Compound 25]
[1]
  Plant response rating, Sedge, Umbrella: 70
[2]
  Plant response rating, Ducksalad: 0
[3]
  Plant response rating, Rice: 0
[4]; 31 g ai/ha
  Plant response rating (0 to 100), Goosegrass: 0
[4]; 62 g ai/ha
  Plant response rating (0 to 100), Goosegrass: 0
[4]; 125 g ai/ha
  Plant response rating (0 to 100), Goosegrass: 0
[4]; 250 g ai/ha
  Plant response rating, Goosegrass: 0

## CCOC(OCC)(c1cccs1)c1c[nH]nc1-c1cc(Cl)cc(Cl)c1 [Compound 27]
[5]; Postemergence, 62 g ai/ha
  Plant response rating (0 to 100), Oilseed Rape: 45
[5]; Postemergence, 125 g ai/ha
  Plant response rating (0 to 100), Oilseed Rape: 50
[5]; [11]
  Plant response rating, Oilseed Rape: 50
[5]; [12]
  Plant response rating, Oilseed Rape: 45
[5]; Preemergence, 62 g ai/ha
  Plant response rating, Oilseed Rape: 70
[5]; Preemergence, 125 g ai/ha
  Plant response rating, Oilseed Rape: 90
[5]; Preemergence, 250 g ai/ha
  Plant response rating, Oilseed Rape: 85
[5]; Preemergence, 500 g ai/ha
  Plant response rating, Oilseed Rape: 90
[6]; Postemergence, 62 g ai/ha
  Plant response rating (0 to 100), Waterhemp: 95
[6]; Postemergence, 125 g ai/ha
  Plant response rating (0 to 100), Waterhemp: 98
[6]; [11]
  Plant response rating, Waterhemp: 98
[6]; [12]
  Plant response rating, Waterhemp: 100
[6]; Preemergence, 62 g ai/ha
  Plant response rating, Waterhemp: 100
[6]; Preemergence, 125 g ai/ha
  Plant response rating, Waterhemp: 100
[6]; Preemergence, 250 g ai/ha
  Plant response rating, Waterhemp: 100
[6]; Preemergence, 500 g ai/ha
  Plant response rating, Waterhemp: 100
[7]; Postemergence, 62 g ai/ha
  Plant response rating (0 to 100), Barnyardgrass: 0
[7]; Postemergence, 125 g ai/ha, scale 0 to 100
  Plant response rating, Barnyardgrass: 0
[7]; [11]
  Plant response rating, Barnyardgrass: 0
[7]; [12]
  Plant response rating, Barnyardgrass: 10
[7]; Preemergence, 62 g ai/ha
  Plant response rating, Barnyardgrass: 0
[7]; Preemergence, 125 g ai/ha
  Plant response rating, Barnyardgrass: 0
[7]; Preemergence, 250 g ai/ha
  Plant response rating, Barnyardgrass: 0
[7]; Preemergence, 500 g ai/ha
  Plant response rating, Barnyardgrass: 0
[1]
  Plant response rating, Sedge, Umbrella: 0
[2]
  Plant response rating, Ducksalad: 0
[3]
  Plant response rating, Rice: 0
[8]
  Plant response rating, Barnyardgrass: 0

## Fc1ccc(NN=C(c2ccccc2)c2c[nH]nc2-c2cc(Cl)cc(Cl)c2)cc1 [Compound 35]
[1]
  Plant response rating, Sedge, Umbrella: 0
[2]
  Plant response rating, Ducksalad: 0
[3]
  Plant response rating, Rice: 0
[8]
  Plant response rating, Barnyardgrass: 0
[4]; 62 g ai/ha
  Plant response rating (0 to 100), Goosegrass: 0
[4]; 125 g ai/ha
  Plant response rating (0 to 100), Goosegrass: 0
[4]; 250 g ai/ha
  Plant response rating, Goosegrass: 0
[4]; 500 g ai/ha
  Plant response rating, Goosegrass: 0
[9]; 31 g ai/ha
  Plant response rating, Ryegrass, Italian: 0
[9]; 62 g ai/ha
  Plant response rating, Ryegrass, Italian: 0
[9]; 125 g ai/ha
  Plant response rating, Ryegrass, Italian: 0
[9]; 250 g ai/ha
  Plant response rating, Ryegrass, Italian: 0
[9]; 500 g ai/ha
  Plant response rating, Ryegrass, Italian: 0
[10]; 31 g ai/ha
  Plant response rating, Poinsettia, Wild: 0
[10]; 62 g ai/ha
  Plant response rating, Poinsettia, Wild: 0
[10]; 125 g ai/ha
  Plant response rating, Poinsettia, Wild: 0
[10]; 250 g ai/ha
  Plant response rating, Poinsettia, Wild: 0
[10]; 500 g ai/ha
  Plant response rating, Poinsettia, Wild: 0

## CCn1cc(C(=O)c2ccccc2)c(-c2cc(Br)cc(Br)c2)n1 [Compound 38]
[1]
  Plant response rating, Sedge, Umbrella: 0
[2]
  Plant response rating, Ducksalad: 0
[3]
  Plant response rating, Rice: 0
[8]
  Plant response rating, Barnyardgrass: 0
[4]; 31 g ai/ha
  Plant response rating (0 to 100), Goosegrass: 0
[4]; 62 g ai/ha
  Plant response rating (0 to 100), Goosegrass: 0
[4]; 125 g ai/ha
  Plant response rating (0 to 100), Goosegrass: 0
[4]; 250 g ai/ha
  Plant response rating, Goosegrass: 0

## CC(C)n1cc(C(=O)c2ccccc2)c(-c2cc(Cl)cc(Cl)c2)n1 [Compound 44]
[1]
  Plant response rating, Sedge, Umbrella: 0
[2]
  Plant response rating, Ducksalad: 0
[3]
  Plant response rating, Rice: 0
[8]
  Plant response rating, Barnyardgrass: 0
[4]; 31 g ai/ha
  Plant response rating (0 to 100), Goosegrass: 0
[4]; 62 g ai/ha
  Plant response rating (0 to 100), Goosegrass: 0
[4]; 125 g ai/ha
  Plant response rating (0 to 100), Goosegrass: 0
[4]; 250 g ai/ha
  Plant response rating, Goosegrass: 0
